Key:
[1] = molecular target: T1, hEP1 (Homo sapiens, UniProt P34995); test: FLIPR calcium signal, HEK-293(EBNA) cells expressing hEP1; format: cell-based
T1 construct: expressed in transfected cells; host or cells: HEK-293(EBNA)
T1 sequence (P34995 1-402): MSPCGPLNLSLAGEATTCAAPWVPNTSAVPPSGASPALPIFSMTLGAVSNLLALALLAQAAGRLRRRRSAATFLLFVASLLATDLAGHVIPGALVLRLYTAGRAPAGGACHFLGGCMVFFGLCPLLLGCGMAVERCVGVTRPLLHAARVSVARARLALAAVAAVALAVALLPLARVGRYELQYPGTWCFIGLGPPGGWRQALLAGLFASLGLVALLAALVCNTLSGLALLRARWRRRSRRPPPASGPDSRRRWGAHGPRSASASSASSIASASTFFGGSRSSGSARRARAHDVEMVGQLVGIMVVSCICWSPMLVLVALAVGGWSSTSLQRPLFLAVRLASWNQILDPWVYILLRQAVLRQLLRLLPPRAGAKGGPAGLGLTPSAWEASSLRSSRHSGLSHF
Method: (§1) HEK-293(EBNA) cells, stably expressing one type or subtype of recombinant human prostaglandin receptors (prostaglandin receptors expressed: hDP/Gqs5; hEP1; hEP2/Gqs5; hEP3A/Gqi5; hEP4/Gqs5; hFP; hIP; hTP), were cultured in 100 mm culture dishes in high-glucose DMEM medium containing 10% fetal bovine serum, 2 mM l-glutamine, 250 µg/ml geneticin (G418) and 200 μg/ml hygromycin B as selection markers, and 100 units/ml penicillin G, 100 µg/ml streptomycin and 0.25 μg/ml amphotericin B.
(§2) Cells were seeded at a density of 5×10^4 cells per well in Biocoat® Poly-D-lysine-coated black-wall, clear-bottom 96-well plates (Becton-Dickinson) and allowed to attach overnight in an incubator at 37° C. Cells were then washed two times with HBSS-HEPES buffer (Hanks Balanced Salt Solution without bicarbonate and phenol red, 20 mM HEPES, pH 7.4) using a Denley Cellwash plate washer (Labsystems). After 45 minutes of dye-loading in the dark, using the calcium-sensitive dye Fluo-4 […] at a final concentration of 2 μM, plates were washed four times with HBSS-HEPES buffer to remove excess dye leaving 100 μl in each well. Plates were re-equilibrated to 37° C. for a few minutes.
(§3) Cells were excited with an Argon laser at 488 nm, and emission was measured through a 510-570 nm bandwidth emission filter (FLIPR™, Molecular Devices, Sunnyvale, Calif.). Drug solution was added in a 50 µl volume to each well to give the desired final concentration. The peak increase in fluorescence intensity was recorded for each well. On each plate, four wells each served as negative (HBSS-HEPES buffer) and positive controls (standard agonists: BW245C (hDP); PGE2 (hEP1; hEP2/Gqs5; hEP3A/Gqi5; hEP4/Gqs5); PGF2α (hFP); carbacyclin (hIP); U-46619 (hTP), depending on receptor). The peak fluorescence change in each drug-containing well was then expressed relative to the controls.
(§4) Compounds were tested in a high-throughput (HTS) or concentration-response (CoRe) format. In the HTS format, forty-four compounds per plate were examined in duplicates at a concentration of 10^−5 M. To generate concentration-response curves, four compounds per plate were tested in duplicates in a concentration range between 10^−5 and 10^−11 M. The duplicate values were averaged. In either, HTS or CoRe format each compound was tested on at least 3 separate plates using cells from different passages to give an n≧3.

[2] = molecular target: T2, hFP (Homo sapiens, UniProt P43088); test: FLIPR calcium signal, HEK-293(EBNA) cells expressing hFP; format: cell-based
T2 construct: expressed in transfected cells; host or cells: HEK-293(EBNA)
Method: as §1, §2, §3, §4

[3] = molecular target: EP2 (Homo sapiens, UniProt P43116); test: Competition binding, [3H]PGE2, HEK 293 cells stably expressing human EP2 receptors; parameters: expressed in transfected cells; host or cells: HEK 293; conditions: [3H]PGE2 competition
Method: Competition binding experiments were performed in a medium containing Hank's balanced salt solution, Hepes 20 mM, pH 7.3, membranes (˜60 μg protein) or 2×10^5 cells from HEK 293 cells stably expressing human EP2 receptors, [^3H]PGE2 (10 nM) and various concentrations of test compounds in a total volume of 300 μl. Reaction mixtures were incubated at 23° C. for 60 min, and were filtered over Whatman GF/B filters under vacuum. Filters were washed three times with 5 ml ice-cold buffer containing 50 mM Tris/HCl (pH 7.3). Non-specific binding was estimated in the presence of excess unlabeled PGE2 (10 μM). Binding data fitted to the binding model for a single class of binding sites, using nonlinear regression analysis. IC50 values thus obtained were converted to Ki using the equation of Ki=(IC50/(1+[L]/KD) where [L] represents PGE2 concentration (10 nM) and KD the dissociation constant for [3H]PGE2 at human EP2 receptors (40 nM).
HEK-293 cells stably expressing the human or feline FP receptor, or EP1, EP2, or EP4 receptors were washed with TME buffer, scraped from the bottom of the flasks, and homogenized for 30 sec using a Brinkman PT 10/35 polytron. TME buffer was added to achieve a final 40 ml volume in the centrifuge tubes (the composition of TME is 100 mM TRIS base, 20 mM MgCl2, […]; 10N HCl is added to achieve a pH of 7.4).
The cell homogenate was centrifuged at 19000 r.p.m. for 20 min at 4° C. using a Beckman Ti-60 rotor. The resultant pellet was resuspended in TME buffer to give a final 1 mg/ml protein concentration, as determined by Biorad assay. Radioligand binding competition assays vs. [^3H-]17-phenyl PGF2α (5 nM) were performed in a 100 μl volume for 60 min. Binding reactions were started by adding plasma membrane fraction. The reaction was terminated by the addition of 4 ml ice-cold TRIS-HCl buffer and rapid filtration through glass fiber GF/B filters using a Brandel cell harvester. The filters were washed 3 times with ice-cold buffer and oven dried for one hour.
[^3H-]PGE2 (specific activity 180 Ci mmol) was used as the radioligand for EP receptors. [^3H]17-phenyl PGF2α was employed for FP receptor binding studies. Binding studies employing EP1, EP2, EP4 and FP receptors were performed in duplicate in at least three separate experiments. A 200 μl assay volume was used. Incubations were for 60 min at 25° C. and were terminated by the addition of 4 ml of ice-cold 50 mM TRIS-HCl, followed by rapid filtration through Whatman GF/B filters and three additional 4 ml washes in a cell harvester (Brandel). Competition studies were performed using a final concentration of 5 nM [^3H]-PGE2, or 5 nM [^3H] 17-phenyl PGF2α and non-specific binding determined with 10^−5M of unlabeled PGE2, or 17-phenyl PGF2α, according to receptor subtype studied.

Sequence of EP2 (P43116 whole entry): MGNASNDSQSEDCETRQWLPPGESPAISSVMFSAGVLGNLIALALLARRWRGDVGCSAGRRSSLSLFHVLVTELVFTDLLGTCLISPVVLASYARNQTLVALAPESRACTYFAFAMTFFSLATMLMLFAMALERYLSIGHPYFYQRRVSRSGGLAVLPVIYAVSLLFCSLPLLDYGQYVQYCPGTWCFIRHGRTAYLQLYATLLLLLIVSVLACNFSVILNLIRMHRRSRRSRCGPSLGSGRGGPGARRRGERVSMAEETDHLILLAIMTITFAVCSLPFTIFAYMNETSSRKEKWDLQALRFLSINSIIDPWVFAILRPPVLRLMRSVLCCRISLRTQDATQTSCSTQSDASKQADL
T2 sequence (P43088 whole entry): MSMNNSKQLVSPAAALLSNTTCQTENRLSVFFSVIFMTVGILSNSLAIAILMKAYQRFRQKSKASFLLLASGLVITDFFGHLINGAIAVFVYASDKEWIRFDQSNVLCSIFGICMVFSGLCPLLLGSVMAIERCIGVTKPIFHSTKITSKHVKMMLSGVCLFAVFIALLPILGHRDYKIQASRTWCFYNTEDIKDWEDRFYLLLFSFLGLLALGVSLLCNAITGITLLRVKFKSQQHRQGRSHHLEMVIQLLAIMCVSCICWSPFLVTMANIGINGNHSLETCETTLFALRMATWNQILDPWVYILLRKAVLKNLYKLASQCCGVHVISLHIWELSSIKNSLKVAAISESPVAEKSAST

Row | Structure (SMILES) | Ca2+ Signal-EC50(nM) EP1 [1] | Ca2+ Signal-EC50(nM) FP [2] | Ki [3] [nM]
1 | CCCCCC(O)c1ccc([C@@H]2[C@@H](C/C=C\CCCC(=O)O)CC[C@H]2Cl)cc1 (stereo partly drawn) [compound 6] | notactive | notactive | 401
2 | CCCCCC(O)c1ccc([C@H]2C(=O)CC[C@@H]2C/C=C\CCCC(=O)O)cc1 (stereo partly drawn) [compound 5] | notactive | notactive | 1050
3 | CCCCCC(O)c1ccc([C@@H]2[C@@H](C/C=C\CCCC(=O)O)CC[C@H]2O)cc1 (stereo partly drawn) [compound 7] | notactive | notactive | 2310

Now those with a lower Ki [3], led by results:

Row | Ca2+ Signal-EC50(nM) EP1 [1] | Ca2+ Signal-EC50(nM) FP [2] | Ki [3] [nM] | Structure (SMILES)
4 | notactive | notactive | 70 | CCCCCC(O)c1ccc([C@H]2C(=O)CC[C@@H]2CCCc2ccc(C(=O)O)s2)cc1 (stereo partly drawn) [compound 2]
5 | notactive | notactive | 43 | CCCCCC(O)c1ccc([C@H]2C(=O)CC[C@@H]2CCCc2ccc(C(=O)O)s2)cc1 (stereo partly drawn) [compound 1]
6 | notactive | notactive | 173 | CCCCCC(O)c1ccc([C@H]2C(=O)C=C[C@@H]2CCCc2ccc(C(=O)O)s2)cc1 (stereo partly drawn) [compound 11]
7 | notactive | notactive | 89 | CCCCCC(O)c1ccc([C@@H]2[C@@H](CCCc3ccc(C(=O)O)s3)CCC2(Cl)Cl)cc1 (stereo partly drawn) [compound 3]
